The species entered for one test is Mus musculus. The test can be described thus: Effective dose required for antinociceptive activity in mouse. Format: functional.
Test [1] concerns the target T1, Opioid receptor (Rattus norvegicus, UniProt P33533+P34975+P33535). In kind it is tissue-based, Brain.
Description: Concentration that produces 50% inhibition of stereospecific [3H]naloxone binding to opioid receptors in rat brain in presence of sodium.
Test [2] concerns the target T1, Opioid receptor. In kind it is tissue-based, Brain. This is another data set of the same source.
Description: Concentration that produces 50% inhibition of stereospecific [3H]naloxone binding to opioid receptors in rat brain in absence of sodium.

Turning to `CN1CC[C@]23c4c5ccc(O)c4O[C@H]2[C@@H](O)C=C[C@H]3[C@H]1C5.CN1CC[C@]23c4c5ccc(O)c4O[C@H]2[C@@H](O)C=C[C@H]3[C@H]1C5.O=S(=O)(O)O`, the ED50 in the test filed under Mus musculus was determined as 0.0794 µg.
In the case of `COc1ccc2c(c1)C1CCC3CCC14C3CCN(C)C4C2.Cl` (stereo not given), the ED50 in the test listed under Mus musculus came out at 5.42 µg.
By IC50 is commonly meant the midpoint of a concentration-inhibition curve. Lower therefore signals greater potency. Molecule `CN1CCC2C3CCC4c5cc(O)ccc5CC1C42CC3.Cl` (stereo not given) showed an ED50 in the test filed under Mus musculus of 4.07 µg. Moreover, the IC50 against Opioid receptor [1] came to 5.59 µM; against Opioid receptor [2], 0.472 µM.

These data come from ChEMBL document CHEMBL1124941, “Assessment of the in vivo and in vitro opioid activity of bridged hexahydroaporphine and isoquinoline molecules” (J Med Chem, 1990).
